# In patent US20100267752A1, “3-HYDROQUINAZOLIN-4-ONE DERIVATIVES FOR USE AS STEAROYL CoA DESATURASE INHIBITORS” (Gilead Palo Alto, Inc., priority 2008, published 2010):
# Molecular target: T1, SCD (stearoyl-CoA desaturase) (Rattus norvegicus, UniProt P07308)
# T1 construct: The rat liver microsomes were collected according to the procedure described in Ozols (1990) Methods Enzm, 182:225; from tissue; host or cells: liver microsomes of male Sprague Dawley rats, SCD induced by a carbohydrate-rich diet
# T1 sequence (P07308 1-358): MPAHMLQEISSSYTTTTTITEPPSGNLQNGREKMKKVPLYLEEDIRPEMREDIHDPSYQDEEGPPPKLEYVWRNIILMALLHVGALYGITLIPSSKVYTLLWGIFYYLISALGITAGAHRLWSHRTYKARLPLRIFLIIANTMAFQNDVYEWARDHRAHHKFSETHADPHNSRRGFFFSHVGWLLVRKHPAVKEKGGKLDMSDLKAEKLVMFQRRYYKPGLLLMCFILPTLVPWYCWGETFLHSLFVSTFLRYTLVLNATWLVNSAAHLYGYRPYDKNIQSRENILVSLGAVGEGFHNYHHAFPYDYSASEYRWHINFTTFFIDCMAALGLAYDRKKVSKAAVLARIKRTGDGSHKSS
# Assay: SCD assay with rat liver microsomes, [3H]stearoyl CoA (adapted from Talamo and Bloch)
# Format: biochemical
# Conditions: rat liver microsomes 0.2 mg/ml final, 30 min preincubation, 45 min reaction at room temperature
# Description: The identification of compounds of the invention as SCD inhibitors was readily accomplished using the SCD enzyme and microsomal assay procedure described in Talamo and Bloch (1969) Analytical Biochemistry 29:300-304.
# The rat liver microsomes were collected according to the procedure described in Ozols (1990) Methods Enzm, 182:225.
# Male Sprague Dawley Rats were placed on regimented fasting protocol for one week to stimulate SCD enzymatic activity. 48-hour periods were alternated between feeding and fasting to induce and down-regulate SCD activity with SCD activity being induced via carbohydrate rich diet prior to liver perfusion and collection.
# The rats were anesthetized with Isoflurane inhalation anesthetic, the liver perfused with cold phosphate buffered saline (PBS), weighed, and chilled in cold homogenization buffer (250 mM sucrose, […] Tris, 1 mM EDTA, pH 7.6.
# The livers were finely minced and placed in homogenization tube. 40 mL of homogenization buffer was added to the homogenization tube and the liver homogenized and centrifuged in a pre-chilled SLA-600 TC at 800G rotor for 10 min at 4° C.
# Following centrifugation, the supernatant was collected and the pellet removed and discarded. The supernatant was centrifuge at 10,000 G for 35 minutes. Following centrifugation, the supernatant was collect and the pellet discarded. The supernatant was then centrifuged in a pre-chilled 45-Ti rotor at 130,000 G (41,000 RPM) for 90 minutes at 4° C.
# The supernatant was then aspirated off and the collected microsomal pellet washed in 25 mL of Glycerol PBS (1×PBS 7.4, 20% Glycerol) and resuspended in 4-5 volumes of Glycerol PBS.
# The protein concentration of the microsomal preparation was determined by BCA assay (Pierce) and the microsomes were aliquoted and stored at −80° C.
# SCD was determined in the desaturase assay buffer. This assay buffer contained 0.1 M Tris buffer, pH 7.2, 2 mM NADH, 4.8 mM ATP, 0.5 mM CoA, 4.8 mM MgCl2, and 0.1% BSA.
# The Procedure for the SCD Assay (Adapted from Talamo and Bloch (1969) Analytical Biochemistry 29:300-304)
# 1 μl of each compound of Formula I was added to an assay plate by a low volume (0.5-10 μL) multichannel pipette. A DMSO control was also prepared. The microsomes were quickly thawed and added to assay buffer so that a concentration of 0.4 mg/ml was achieved (0.2 mg/ml assay final). 50 μl of the microsome suspension in assay buffer was then added into each well in the compound assay plate, the plate was covered, and the microsomes preincubated with the compounds for 30 minutes on the orbital shaker, 50-75 rpm, at room temperature. […]
row,SMILES,IC50
1,"O=C(Nc1ccc2c(=O)[nH]c(Cc3ccc(Cl)c(Cl)c3)nc2c1)OCc1ccccc1 [I., benzyl 2-(3,4-dichlorobenzyl)-4-oxo-3,4-dihydroquinazolin-7-ylcarbamate]",2.5 µM
2,"O=C(Nc1ccc2nc(Cc3ccc(Cl)c(Cl)c3)[nH]c(=O)c2c1)OCc1ccccc1 [II., benzyl 2-(3,4-dichlorobenzyl)-4-oxo-3,4-dihydroquinazolin-6-ylcarbamate]",1.2 µM
3,"CC(=O)OCC(=O)Nc1ccc2nc(Cc3ccc(Cl)c(Cl)c3)[nH]c(=O)c2c1 [III., 2-(2-(3,4-dichlorobenzyl)-4-oxo-3,4-dihydroquinazolin-6-ylamino)-2-oxoethyl acetate]",0.75 µM
4,"O=C(CO)Nc1ccc2nc(Cc3ccc(Cl)c(Cl)c3)[nH]c(=O)c2c1 [IV., N-(2-(3,4-dichlorobenzyl)-4-oxo-3,4-dihydroquinazolin-6-yl)-2-hydroxyacetamide]",0.93 µM
